According to patent publication US9441014B2, “Skin permeating and cell entering (SPACE) peptides and methods of use thereof” (The Regents of the University of California, priority 2010, dated 2016):
Read-outs that look alike come from different tables or passages of the source. Residues, ends and D or L forms follow the SMILES beside them.

Legend:
porcine skin [1] = assay type: in vitro ADME
Procedure: The ability of the SPACE peptide to carry macromolecular cargos across the SC was tested as follows. Full thickness porcine skin was obtained and prepared as described above. The peptide was first conjugated to the macromolecule as described in greater detail below and then the peptide-macromolecule complex was placed into the donor compartment of the FDC. After 24 hours, the remaining solution in the donor compartment was removed and the FDC was dismantled. The skin sample was retrieved and rinsed with DI water to remove excess peptide complex on the surface of the skin.
To conjugate the peptide to the macromolecule streptavidin, 80 μL of a 1 mg/mL biotinylated peptide solution was incubated with 20 μL of a 2 mg/mL streptavidin-Alexa Fluor 488 conjugate (Invitrogen) solution and incubated at room temperature for 30 minutes. The resulting solution was then placed into the donor compartment of the FDC. Skin samples were harvested after 24 hours and imaged as described above.
The ability of the SPACE peptide to carry quantum dots across the SC was also tested. For the delivery of quantum dots into the skin, 198 μL of a 100 ng/mL biotinylated peptide solution was incubated with 2 μL of QDot 525 streptavidin conjugate (Invitrogen) for 1 hour at room temperature. The 200 μL suspension was then placed into the donor compartment of the FDC. […]

[2] = test system: green fluorescent protein (GFP) in GFP-expressing endothelial cells; experiment: GFP knockdown in GFP-expressing endothelial cells; assay type: cell-based
Procedure: GFP-expressing endothelial cells (ATCC) were grown in Dulbecco's Modified Eagle's Medium supplemented with 10% fetal bovine serum. GFP siRNA, 5′-GACGUAAACGGCCACAAGUUC N6-3′ (SEQ ID NO:26) (Dharmacon), was conjugated to fluorescently labeled peptide (containing a free carboxyl group) through EDC chemistry.
A 10 mM peptide solution was incubated with a 10 mM solution of N-(3-Dimethylaminopropyl)-N′-ethylcarbodiimide hydrochloride (EDAC, Sigma) and a 9.5 mM solution of N-Hydroxysulfosuccinimide sodium salt (NHS, Sigma) in equal parts in MES buffer (pH 5.5) for 15 minutes. The amine modified siRNA was then added to the mixture to conjugate the peptide to siRNA and allowed to mix overnight.
The peptide-siRNA complex was added to the appropriate cell culture media to obtain a final concentration of 1 μM siRNA. The media along with peptide-siRNA was then added to the cells and allowed to incubate for 48 hours. Cells were imaged using confocal microscopy and image analysis was performed using ImageJ to determine the overall fluorescence intensity for each cell.

porcine skin [3] = experiment: Peptide penetration into porcine skin (confocal microscopy); assay type: in vitro ADME; conditions: 200 μL of 1 mg/mL, 24 hours
Procedure: (§1) The ability of the SPACE peptide to penetrate porcine skin when removed from phage was tested as follows. Full thickness porcine skin was obtained and prepared as described above. Fluorescently labeled peptides, 200 μL of a 1 mg/mL solution, were placed in the donor compartment of the FDC. After 24 hours, the remaining solution in the donor compartment was removed and the FDC was dismantled. The skin sample was retrieved and rinsed with DI water to remove excess peptide or peptide complex on the surface of the skin.

human skin = experiment: Peptide penetration in human skin (confocal microscopy); assay type: in vitro ADME
Procedure: as §1, with “human” for “porcine”, “phage and conjugated to an exemplary small molecule in the form of a fluorescent tag” for “phage”, “from the National Disease Research Interchange. […]” for “and prepared as described above.”

mouse skin = experiment: Peptide penetration into mouse skin in-vivo
Procedure: The ability of the SPACE peptide to penetrate mouse skin in-vivo was tested as follows. 200 μl of fluorescently labeled peptide (1 mg/ml) was applied on the skin of a mouse. Penetration was assessed at various time points by harvesting the skin, sectioning it and observing under a microscope.

porcine skin [4] = experiment: Inulin permeability of porcine skin after co-incubation with peptide; assay type: in vitro ADME
human keratinocytes = experiment: MTT assay on keratinocyte cultures; assay type: cell-based; conditions: 0.1-1.0 mg/mL
Procedure: (a) Peptide internalization (percent of control) for control peptide and SPACE peptide at 4° C. and with the endocytosis inhibitors deoxy-D-glucose, chlorpromazine, nystatin, and EIPA in human keratinocytes. (b) Cell proliferation of human keratinocytes in the presence of control peptide (open bars) or SPACE peptide (closed bars) at 0.1 mg/mL and 1.0 mg/mL. Error cars indicate SD (N=4).

Streptavidin not conjugated to SPACE peptide: streptavidin-Alexa Fluor 488 conjugate (Invitrogen) alone
penetration of Alexa Fluor 488 streptavidin into porcine skin (porcine skin [1]): minimal penetration into epidermis

5′-GACGUAAACGGCCACAAGUUC N6-3′ (GACGUAAACGGCCACAAGUUC; siRNA; 3' N6 group, conjugated to fluorescently labeled peptide by EDC chemistry, further chemistry not given here) [siRNA alone, GFP siRNA (Dharmacon)]
knockdown of GFP ([2]; 1 μM siRNA, 48 hours): no significant knockdown
knockdown of GFP when complexed with Lipofectamine ([2]; complexed with Lipofectamine, compared to no siRNA treatment): knockdown was significant

C[C@H](N)C(=O)N[C@H]1CSSC[C@@H](C(=O)NCC(=O)O)NC(=O)[C@H](CO)NC(=O)[C@H](CCC(N)=O)NC(=O)[C@H]([C@@H](C)O)NC(=O)[C@H](CCC(N)=O)NC(=O)CNC(=O)[C@H](Cc2c[nH]cn2)NC(=O)[C@H]([C@@H](C)O)NC1=O [control peptide] (HELM PEPTIDE1{A.C.T.H.G.Q.T.Q.S.C.G}$PEPTIDE1,PEPTIDE1,2:R3-10:R3$$$V2.0; N-terminus and C-terminus assumed)
penetration of fluorescently labeled peptide into porcine skin (porcine skin [3]): No significant penetration
penetration/localization in human skin observed from the top (human skin; top view looking down on SC, 24 hours): no significant penetration
penetration into mouse skin in vivo (mouse skin; 200 μl of 1 mg/ml topical): lack of skin penetration in vivo

C[C@H](N)C(=O)N[C@H]1CSSC[C@@H](C(=O)NCC(=O)O)NC(=O)[C@H](CCC(N)=O)NC(=O)[C@H](Cc2c[nH]cn2)NC(=O)[C@H](CCC(N)=O)NC(=O)[C@H]([C@@H](C)O)NC(=O)[C@H](CO)NC(=O)CNC(=O)[C@H]([C@@H](C)O)NC1=O [SPACE peptide] (HELM PEPTIDE1{A.C.T.G.S.T.Q.H.Q.C.G}$PEPTIDE1,PEPTIDE1,2:R3-10:R3$$$V2.0; N-terminus and C-terminus assumed)
penetration/localization in human skin observed from the top (human skin): high localization of the SPACE peptide within the corneocytes
penetration into mouse skin in vivo after 30 minutes (mouse skin; mouse, in vivo): resulted in penetration
penetration into mouse skin in vivo after two hours (mouse skin; mouse, in vivo): significant penetration into the skin and localization in the deep dermis
effect on inulin permeability (porcine skin [4]): only a modest increase
toxicity to cells (MTT) (human keratinocytes): not toxic
